Earlier results, collected in patent US9192673B2, “Fine dry particulate resveratrol active agent compositions and topical formulations including the same” (priority 2013, dated 2015).

Details: background statement

## Oc1ccc(/C=C/c2cc(O)cc(O)c2)cc1 [resveratrol, 3,5,4′-trihydroxystilbene]
  solubility in water and in lipophilic components: almost insoluble
